From US4770996A, “Identification of individuals predisposed toward alcohol abuse” (priority 1986, dated 1988)

How the values were obtained:
[1] = test system: platelet adenylate cyclase; assay: Platelet membrane adenylate cyclase (AC) assay, 32P-ATP to 32P-cAMP; format: biochemical, human; design: Adenylate Cyclase Activity - CsF-Stimulated / Adenylate Cyclase Activity - CsF-Stimulated, Mean ± SD: unit not given here; conditions: for Enzyme Activity +PGE1 (1 uM) / Enzyme Activity +Gpp(NH)p: mean ± SD; for Enzyme Activity +Gpp(NH)p: Gpp(NH)p 10 uM; for Adenylate Cyclase Activity - CsF-Stimulated / Adenylate Cyclase Activity - CsF-Stimulated, Mean ± SD / Enzyme Activity +CsF: CsF 10 mM
Description: Platelets were prepared from whole blood (20 ml) which was obtained by venipuncture from healthy volunteers and alcoholic subjects. After standing at room temperature for approximately three to four hours in citrate-phosphate-dextrose solution, each blood sample was centrifuged at 180×G for two minutes. […] The PRP was centrifuged at 16,000 g for ten minutes. The pellet was resuspended in 50 ml of cold 50 mM Tris-HCl, pH 7.5, containing […] NaCl and 20 mM ethylene diamine tetraacetic acid (EDTA). The centrifugation was repeated twice, and the final pellet was resuspended in 1 ml of cold 5 mM Tris-HCl, pH 7.5, containing 5 mM EDTA. Suspensions were rapidly frozen at -70° C., and samples were stored at -70° C. for no longer than four weeks prior to assay. AC activity was assayed by a modification of previously described methods, Hoffman and Tabakoff, J. Pharmacol. Exptl. […] Platelets were thawed at room temperature, aliquots of platelets were diluted to 4 ml with 5 mM Tris-HCl buffer containing 5 mM EDTA, and the suspension was centrifuged at 39,000×G for ten minutes at 4° C. […] The reaction was stopped by placing the tubes in a boiling water bath for three minutes. […] The ^32 p-cAMP was isolated by sequential chromatography on Dowex (Sigma Chemical Co., St. Louis, Mo.) and alumina columns (Sigma Chemical Co., St. Louis, Mo.), Salomon et. al., Anal. […] To each column effluent, 10 ml of scintilation cocktail was added, and ^32 p-cAMP was quantitated in a liquid scintillation spectrometer. All values were corrected for percentage recovery of the product (^32 p-cAMP).

[2] = molecular target: T1, platelet monoamine oxidase (MAO) (Homo sapiens, UniProt P27338); assay: Platelet monoamine oxidase (MAO) assay, deamination of 14C-PEA; format: biochemical; conditions: for Percent Inhibition by 400 mM Ethyl Alcohol / Percent Inhibition by 400 mM Ethyl Alcohol, Mean ± SD / Percent Inhibition by 400 mM ETOH: 12 uM PEA; for Percent Inhibition by 400 mM ETOH: mean ± SD
T1 construct: contained approximately 15 ug of platelet protein; from tissue; host or cells: platelets (membranes) from whole blood of volunteers and alcoholic subjects
T1 sequence (P27338 1-520): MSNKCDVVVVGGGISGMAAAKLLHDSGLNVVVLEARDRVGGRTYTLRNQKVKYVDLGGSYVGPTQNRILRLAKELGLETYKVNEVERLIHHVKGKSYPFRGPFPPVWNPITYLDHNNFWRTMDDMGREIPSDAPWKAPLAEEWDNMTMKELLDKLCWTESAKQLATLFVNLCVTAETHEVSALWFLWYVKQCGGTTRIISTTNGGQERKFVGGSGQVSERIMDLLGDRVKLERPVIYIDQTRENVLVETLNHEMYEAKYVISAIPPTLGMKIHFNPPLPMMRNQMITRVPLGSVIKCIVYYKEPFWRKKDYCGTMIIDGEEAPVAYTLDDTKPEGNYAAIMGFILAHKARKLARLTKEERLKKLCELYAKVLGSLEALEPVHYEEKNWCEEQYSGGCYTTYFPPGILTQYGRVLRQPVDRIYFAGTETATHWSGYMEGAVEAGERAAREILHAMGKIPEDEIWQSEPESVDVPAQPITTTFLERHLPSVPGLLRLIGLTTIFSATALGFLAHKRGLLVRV
Description: Platelets were prepared from whole blood (20 ml) which was obtained by venipuncture from healthy volunteers and alcoholic subjects. After standing at room temperature for approximately three to four hours in citrate-phosphate-dextrose solution, each blood sample was centrifuged at 180×G for two minutes. The platelet-rich plasma (PRP) was carefully removed and platelet count was determined from aliquots (20 ul) of the PRP with a Coulter S-plus Thrombocounter. The PRP was centrifuged at 16,000 g for ten minutes. The pellet was resuspended in 50 ml of cold 50 mM Tris-HCl, pH 7.5, containing […] NaCl and 20 mM ethylene diamine tetraacetic acid (EDTA). The centrifugation was repeated twice, and the final pellet was resuspended in 1 ml of cold 5 mM Tris-HCl, pH 7.5, containing 5 mM EDTA. Suspensions were rapidly frozen at -70° C., and samples were stored at -70° C. for no longer than four weeks prior to assay.
To measure the deamination of ^14 C-PEA, assay mixtures (total volume, 0.3 ml) contained approximately 15 ug of platelet protein. Reactions were carried out in 0.1 M sodium phosphate, pH 7.4, at 37° C. A five-minute preincubation period preceded the addition of substrate, and blanks were preincubated in the presence of 1×10^-3 M pargyline. Appropriate concentrations of ^14 C-PEA (10,000 dpm per nmole) were added to initiate the reaction, and the incubation was carried out for 15 minutes. The reaction was stopped by placing the tubes in an ice bath and adding 1.0 ml of ice-cold unlabeled PEA solution (10^-4 M) to each assay tube. A 1-ml aliquot was then removed from each tube and placed on an Amberlite™ ion exchange column, Tabakoff et. al., Psychopharmacol. 87:152 (1985). The columns were washed with two 1-ml portions of distilled water and the effluent was collected in scintillation vials. Two additional ml of water and 20 ml of scintillation fluid were added to each vial, and radioactivity was determined in a liquid scintillation spectrometer. To study the effects of ethanol or other alcohols on MAO activity, the alcohols were added to incubation mixtures five minutes prior to the addition of substrate.

[3] = test system: platelet adenylate cyclase; conditions: Jakobs et al., J. Recep. Res. 4:443-458, 1984; cited from earlier work

CCCCC[C@H](O)/C=C/[C@H]1[C@H](O)CC(=O)[C@@H]1CCCCCCC(=O)O [PGE1, prostaglandin E1]
Enzyme Activity +PGE1 (1 uM) ([1]; platelets of Alcoholics, n=34, significant vs control): 84.4 ± 36.1 pmole cAMP/mg protein/minute | Enzyme Activity +PGE1 (1 uM) ([1]; platelets of Controls, n=21): 115.5 ± 32.9 pmole cAMP/mg protein/minute | Enzyme Activity +PGE1 (1 uM) ([1]; platelets of Recovering Alcoholics, n=8, significant vs control and vs alcoholics): 42.7 ± 12.8 pmole cAMP/mg protein/minute

CCO [ethyl alcohol]
nature of MAO inhibition by ethyl alcohol added in vitro ([2]; in vitro, amount of inhibition depended on substrate concentration): reversible and was "competitive" in nature | Percent Inhibition by 400 mM Ethyl Alcohol ([2]; patient No. 1, Sample 1 (baseline)): 7.0% | Percent Inhibition by 400 mM Ethyl Alcohol ([2]; patient No. 1, Sample 2 (five days later)): 7.6% | Percent Inhibition by 400 mM Ethyl Alcohol ([2]; patient No. 1, Sample 3 (six days later)): 6.1% | Percent Inhibition by 400 mM Ethyl Alcohol, Mean ± SD ([2]; patient No. 1, mean of 3 samples): 6.9 ± 0.8% | Percent Inhibition by 400 mM Ethyl Alcohol ([2]; patient No. 2, Sample 1 (baseline)): 13.1% | Percent Inhibition by 400 mM Ethyl Alcohol ([2]; patient No. 2, Sample 2 (five days later)): 7.9% | Percent Inhibition by 400 mM Ethyl Alcohol ([2]; patient No. 2, Sample 3 (six days later)): 9.8% | Percent Inhibition by 400 mM Ethyl Alcohol, Mean ± SD ([2]; patient No. 2, mean of 3 samples): 10.3 ± 2.6% | Percent Inhibition by 400 mM ETOH ([2]; platelets of Alcoholics, n=54, P < 0.01 vs control): 12.6 ± 7.0% | Percent Inhibition by 400 mM ETOH ([2]; platelets of Controls, n=28): 7.5 ± 6.9% | Percent Inhibition by 400 mM ETOH ([2]; platelets of Recovering Alcoholics, n=22, P < 0.05 vs control): 11.4 ± 6.2%

Nc1nc2c(ncn2[C@@H]2O[C@H](COP(=O)(O)OP(=O)(O)NP(=O)(O)O)[C@@H](O)[C@H]2O)c(=O)[nH]1 [Gpp(NH)p, guanylylimidodiphosphate]
Enzyme Activity +Gpp(NH)p ([1]; platelets of Alcoholics, n=43, significant vs control): 37.8 ± 14.4 pmole cAMP/mg protein/minute | Enzyme Activity +Gpp(NH)p ([1]; platelets of Controls, n=36): 50.4 ± 15.0 pmole cAMP/mg protein/minute | Enzyme Activity +Gpp(NH)p ([1]; platelets of Recovering Alcoholics, n=23, significant vs control): 37.2 ± 16.5 pmole cAMP/mg protein/minute

[Na+] [Na^+]
effect of sodium ion on stimulation of platelet AC activity [3]: inhibits stimulation of platelet AC activity

[Cs+].[F-] [CsF, cesium fluoride]
Adenylate Cyclase Activity - CsF-Stimulated ([1]; control subject No. 5, Sample 1): 83.6 | Adenylate Cyclase Activity - CsF-Stimulated ([1]; control subject No. 5, Sample 2 (one week interval)): 69.5 | Adenylate Cyclase Activity - CsF-Stimulated ([1]; control subject No. 5, Sample 3 (one week interval)): 72.3 | Adenylate Cyclase Activity - CsF-Stimulated, Mean ± SD ([1]; control subject No. 5, mean of 3 samples): 75.1 ± 7.5 | Adenylate Cyclase Activity - CsF-Stimulated ([1]; control subject No. 6, Sample 1): 104.2 | Adenylate Cyclase Activity - CsF-Stimulated ([1]; control subject No. 6, Sample 2 (one week interval)): 98.0 | Adenylate Cyclase Activity - CsF-Stimulated ([1]; control subject No. 6, Sample 3 (one week interval)): 100.2 | Adenylate Cyclase Activity - CsF-Stimulated, Mean ± SD ([1]; control subject No. 6, mean of 3 samples): 100.8 ± 3.1 | Enzyme Activity +CsF ([1]; platelets of Alcoholics, mean (SD 27.8), n=107, significant vs control): 78.2 pmole cAMP/mg protein/minute | Enzyme Activity +CsF ([1]; platelets of Controls, mean (SD 28.7), n=49): 97.9 pmole cAMP/mg protein/minute | Enzyme Activity +CsF ([1]; platelets of Recovering Alcoholics, mean (SD 27.2), n=38, significant vs control): 70.6 pmole cAMP/mg protein/minute

Nc1ncnc2c1ncn2[C@@H]1O[C@H](COP(=O)(O)OP(=O)(O)OP(=O)(O)O)[C@@H](O)[C@H]1O [Mg-adenosine triphosphate]
maximal activity (Vmax) of adenylate cyclase ([1]; platelets of control subjects, 10 mM Mg++, varying ATP, mean±SD, n=3): 15.1±2.4 pmole cAMP produced/min/mg pro | Km ([1]; platelets of control subjects, 10 mM Mg++, varying ATP, mean±SEM, n=3, read-out: Km of adenylate cyclase for Mg-adenosine triphosphate (ATP)): 20.1 ± 3.8 µM
